Laboratory results taken from ChEMBL document CHEMBL1201862, “PubChem BioAssay data set” (2004).
Active and inactive are the calls of the source. Cut-off read from the data, not from the text of the source, for most assays here: actives have a measured IC50 and inactives only a lower limit.

Columns and labels:
[1] = test system: Streptococcus; assay: Group A Streptococcus viability loss, dose response, counter-screen for streptokinase expression inhibitor project, luminescence, BacTiterGlo (AID 1915); assay type: functional, organism-based;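 note: potency for reduction of bacterial viability or growth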
[2] = target: T1, Streptokinase A (Streptococcus pyogenes serotype M1, UniProt P10520); assay: S. pyogenes streptokinase expression inhibitors, potency, dose response, plasminogen activation absorbance, OD405 (AID 1914); assay type: functional, Streptococcus pyogenes M1 GAS;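 note: secreted streptokinase activity via plasminogen activation per viability signal from cell pellet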
T1 sequence (P10520 whole entry): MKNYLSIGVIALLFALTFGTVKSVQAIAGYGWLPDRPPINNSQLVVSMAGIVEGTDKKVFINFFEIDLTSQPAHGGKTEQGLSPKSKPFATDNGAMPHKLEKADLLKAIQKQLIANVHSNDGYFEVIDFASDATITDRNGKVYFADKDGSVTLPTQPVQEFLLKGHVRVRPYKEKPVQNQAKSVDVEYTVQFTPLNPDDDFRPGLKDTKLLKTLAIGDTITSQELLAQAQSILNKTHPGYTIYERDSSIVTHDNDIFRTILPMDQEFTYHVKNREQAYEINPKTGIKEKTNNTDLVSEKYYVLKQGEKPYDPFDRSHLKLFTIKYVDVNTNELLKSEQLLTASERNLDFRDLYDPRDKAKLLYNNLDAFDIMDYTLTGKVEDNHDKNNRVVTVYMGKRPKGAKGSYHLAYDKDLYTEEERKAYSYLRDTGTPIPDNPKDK

[3] = target: T2, Caspase-3 (Homo sapiens, UniProt P42574); assay type: functional;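 note: Dose-response selectivity test against caspase-3 for candidate inhibitors of sentrin-specific proteases (SENPs)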
T2 sequence (P42574 whole entry): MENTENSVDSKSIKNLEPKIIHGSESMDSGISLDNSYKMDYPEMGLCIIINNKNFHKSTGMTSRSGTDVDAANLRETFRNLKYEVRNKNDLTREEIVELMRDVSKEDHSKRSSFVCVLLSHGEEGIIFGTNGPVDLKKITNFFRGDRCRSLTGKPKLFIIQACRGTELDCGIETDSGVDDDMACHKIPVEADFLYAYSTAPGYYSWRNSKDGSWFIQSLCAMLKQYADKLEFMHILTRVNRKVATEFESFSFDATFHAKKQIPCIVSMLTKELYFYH

[4] = target: T3, Sentrin-specific protease 6 (Homo sapiens, UniProt Q9GZR1); assay type: functional;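 note: Luminescence-based dose-response confirmatory assay of SENP6 inhibition, following up an ultra-high-throughput screen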
T3 sequence (Q9GZR1 whole entry): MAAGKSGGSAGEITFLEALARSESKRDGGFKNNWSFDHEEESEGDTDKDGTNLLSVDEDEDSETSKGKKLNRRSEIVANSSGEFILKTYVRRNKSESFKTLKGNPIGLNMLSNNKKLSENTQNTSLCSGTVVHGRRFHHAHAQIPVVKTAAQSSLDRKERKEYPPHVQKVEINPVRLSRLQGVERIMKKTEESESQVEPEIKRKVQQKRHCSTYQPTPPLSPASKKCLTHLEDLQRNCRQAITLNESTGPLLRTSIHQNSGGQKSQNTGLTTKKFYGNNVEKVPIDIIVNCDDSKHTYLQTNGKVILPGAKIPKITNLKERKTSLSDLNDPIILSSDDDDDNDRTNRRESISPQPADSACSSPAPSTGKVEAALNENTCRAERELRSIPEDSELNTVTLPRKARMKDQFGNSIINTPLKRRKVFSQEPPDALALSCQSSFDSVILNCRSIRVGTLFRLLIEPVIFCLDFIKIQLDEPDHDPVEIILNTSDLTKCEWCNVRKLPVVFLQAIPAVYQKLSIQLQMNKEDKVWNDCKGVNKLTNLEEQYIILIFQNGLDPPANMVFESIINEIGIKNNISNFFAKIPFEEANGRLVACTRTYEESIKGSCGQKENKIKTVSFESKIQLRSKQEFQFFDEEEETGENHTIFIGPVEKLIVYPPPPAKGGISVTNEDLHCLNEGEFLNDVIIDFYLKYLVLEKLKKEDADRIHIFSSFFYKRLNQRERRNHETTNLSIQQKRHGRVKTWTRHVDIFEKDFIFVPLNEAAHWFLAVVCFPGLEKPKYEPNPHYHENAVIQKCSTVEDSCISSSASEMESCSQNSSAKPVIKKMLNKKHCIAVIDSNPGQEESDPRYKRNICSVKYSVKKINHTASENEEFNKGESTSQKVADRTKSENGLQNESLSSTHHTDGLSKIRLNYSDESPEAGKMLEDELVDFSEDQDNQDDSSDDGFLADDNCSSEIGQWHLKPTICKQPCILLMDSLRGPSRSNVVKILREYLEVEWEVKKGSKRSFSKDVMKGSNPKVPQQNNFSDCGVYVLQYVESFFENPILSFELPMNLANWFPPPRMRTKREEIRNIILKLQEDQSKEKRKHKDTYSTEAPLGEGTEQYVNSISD

[5] = target: T4, Sentrin-specific protease 7 (Homo sapiens, UniProt Q9BQF6); assay type: functional;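 note: Luminescence-based dose-response confirmation of ultra-high-throughput screening hits, measuring inhibition of SENP7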
T4 sequence (Q9BQF6 whole entry): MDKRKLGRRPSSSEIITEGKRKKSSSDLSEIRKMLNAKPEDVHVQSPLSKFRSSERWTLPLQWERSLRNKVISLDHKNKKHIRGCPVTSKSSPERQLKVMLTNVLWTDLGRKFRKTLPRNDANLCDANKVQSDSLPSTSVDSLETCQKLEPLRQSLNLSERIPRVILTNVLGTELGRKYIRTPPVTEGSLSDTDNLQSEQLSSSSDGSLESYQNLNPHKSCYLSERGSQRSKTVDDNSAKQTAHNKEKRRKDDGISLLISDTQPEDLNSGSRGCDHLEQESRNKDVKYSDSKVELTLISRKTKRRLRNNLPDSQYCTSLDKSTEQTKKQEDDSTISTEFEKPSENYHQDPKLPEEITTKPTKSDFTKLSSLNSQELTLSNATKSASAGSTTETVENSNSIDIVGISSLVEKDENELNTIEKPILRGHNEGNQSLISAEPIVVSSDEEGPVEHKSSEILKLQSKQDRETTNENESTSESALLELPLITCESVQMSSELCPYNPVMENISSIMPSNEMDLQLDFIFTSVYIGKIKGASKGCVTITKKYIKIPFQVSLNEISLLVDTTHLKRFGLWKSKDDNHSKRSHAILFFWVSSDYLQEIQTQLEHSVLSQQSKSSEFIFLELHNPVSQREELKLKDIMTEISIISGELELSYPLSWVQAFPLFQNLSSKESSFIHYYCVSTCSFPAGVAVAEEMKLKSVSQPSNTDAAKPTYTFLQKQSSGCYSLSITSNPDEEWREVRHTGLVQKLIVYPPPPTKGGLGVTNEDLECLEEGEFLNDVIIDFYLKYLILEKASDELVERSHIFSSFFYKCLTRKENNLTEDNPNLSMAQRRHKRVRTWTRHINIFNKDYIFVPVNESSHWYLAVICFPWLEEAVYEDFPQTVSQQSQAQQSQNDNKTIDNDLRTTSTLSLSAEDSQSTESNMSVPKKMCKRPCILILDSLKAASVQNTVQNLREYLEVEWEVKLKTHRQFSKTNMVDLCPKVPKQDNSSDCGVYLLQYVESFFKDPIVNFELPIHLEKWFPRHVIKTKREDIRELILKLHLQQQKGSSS

Row | SMILES | EC50 [1] | EC50 [2] | IC50 [3] | IC50 [4] | IC50 [5]
1 | O=C(Nc1ccccc1)c1nnsc1[S+]([O-])c1ccc(Cl)cc1 (stereo not given) | 3.79 µM (active) | 1.06 µM (active) | – | – | –
2 | O=C1C=C(Nc2ccccc2)c2ccccc2C1=O | 8.86 µM (active) | > 150 µM (not active) | 18.6 µM (active) | 5.8 µM (active) | 12.2 µM (active)
3 | CC1OC(Nc2cccc3ccccc23)C(O)C(O)C1O (stereo not given) | – | – | 9.4 µM (active) | 3.63 µM (active) | 7.53 µM (active)
